# Values joined by “and” are separate entries in the source; they are usually repeats but may differ in a detail not shown here. Identical values can stand only once. Like-named read-outs stand apart in the source and are kept apart here.
# How the values were obtained:
# HCT116-wt = assay: WST-1 cell viability, colorectal cancer cell line HCT116-wt; type: cell-based; conditions: 72 h
# Protocol: (§1) The cell numbers were counted and reseed as 2×10^6 in culture plate/flask. Then, the culture medium were added to a volume of 10 ml, and the cells were cultured for 2-3 days. Then, the cells were suspended for loading into 96-well plates. The number of cells was 3000 and the volume of the culture medium was 100 μl each well.
# (§2) Removing the original culture medium from 96-well plate. Then add 100 μl of commercially drug at a concentration of 10 μM per well. After 72 hours, add the diluted WST-1 reagent to the well with 100 μl/well, and the diluted WST-1 reagent was acquired from the dilution of 9:1 medium and WST-1 stock reagent. Finally, the total volume of each well was 200 μl/well. Culture the 96-well plate at 37° C. for 30 to 90 minutes. Detecting and calculate the survival rate of each cancer cells with an ELISA reader at OD450 nm.
# T24 = assay: WST-1 cell viability, bladder cancer cell line T24; type: cell-based; conditions: Homo sapiens
# Protocol: as §1
# as §2, with “Culture the 96-well plate at 37° C. for 30 to 90 minutes.” left out
# AsPC-1 = assay: WST-1 cell viability, pancreatic cancer cell line AsPC-1; type: cell-based; conditions: Homo sapiens
# Protocol: as §1, §2
# BxPC-3 = assay: WST-1 cell viability, pancreatic cancer cell line BxPC-3; type: cell-based; conditions: Homo sapiens
# Protocol: as §1, §2
# [1] = system: A549 (lung adenocarcinoma); assay: WST-1 cell viability, lung cancer cell line A549; type: cell-based; conditions: Homo sapiens
# Protocol: as §1, §2
# [2] = system: MKN-45 (Gastric Adenocarcinoma); assay: WST-1 cell viability, gastric cancer cell line MKN-45; type: cell-based; conditions: Homo sapiens
# Protocol: as §1, §2
# various cancer cells = assay: Inhibitory effect on various cancer cells (cell viability); type: cell-based; conditions: Table 18, FIG. 1
# Description: Subculture the different types of cancer cells. The cancer cells includes lung cancer, gastric cancer, hepatic cancer, colon cancer, skin cancer, cervical cancer, prostate cancer, bladder cancer, breast cancer, leukemia, pancreatic cancer, ovarian cancer, tongue cancer, osteosarcoma, and renal cancer. The normal cells used in the control group included kidney cells (HEK293), canine fibroblast cell line HFW, and human bronchial epithelial cell line BEAS-2B. Removing the original culture medium from 96-well plate. […] After 72 hours, add the diluted WST-1 reagent to the well with 100 μl/well, and the diluted WST-1 reagent was acquired from the dilution of 9:1 medium and WST-1 stock reagent. […] Culture the 96-well plate at 37° C. for 30 to 90 minutes. Detecting and calculate the survival rate of each cancer cells with an ELISA reader at OD450 nm. […] (FIG. 1)
# [3] = system: A375 (amelanotic melanoma); assay: WST-1 cell viability, skin cancer cell line A375; type: cell-based; conditions: Homo sapiens
# Protocol: as §1, §2
# [4] = Animal model test of gastric cancer, body weight and survival of mice; type: in vivo; conditions: for weight: mice A, B, C
# Protocol: In this invention, the female mice were (BALB/cAnN.Cg-Foxn1^nu/CrlNarl) purchased from National Laboratory Animal Center (Taiwan). The weight of the mice were 21±1 g. These mice were subcutaneously injected with gastric cancer cells (AGS) and then put these mice into different cage sat random. The drug test experiment was divided into three groups, include “control group”, “low dose group (100 mg/kg/day)”, and “high dose group (200 mg/kg/day)”. These mice were then injected test drug intraperitoneally once daily until the tumor size reached 100 mm^3. The tumor sizes and body weight were measured twice a week. The tumor sizes were measured and calculated by formula: (L×W^2)/2. L represents the tumor longest length. W represents the tumor shortest diameter.
# pancreatic cancer cells = assay: Summary of cell viability, pancreatic cancer; type: cell-based; conditions: 72 h, read-out: Inhibitory effect
# Protocol: as §2
# [5] = system: C-33A (Cervical carcinoma); assay: WST-1 cell viability, cervical cancer cell line C-33A; type: cell-based; conditions: Homo sapiens, 72 h
# Protocol: as §1, §2
# gastric cancer cells = assay: Summary of cell viability, gastric cancer; type: cell-based; conditions: gastriccancer, 72 h, read-out: Inhibitory effect
# Protocol: as §2
# [6] = system: AGS (Gastric Adenocarcinoma); assay: WST-1 cell viability, gastric cancer cell line AGS; type: cell-based; conditions: 72 h
# Protocol: as §1, §2
# TOV-21G = assay: WST-1 cell viability, ovarian cancer cell line TOV-21G; type: cell-based; conditions: Homo sapiens, TOV21G, 72 h
# Protocol: as §1, §2
# hepatic cancer cells = assay: Summary of cell viability, hepatic cancer; type: cell-based; conditions: 72 h, read-out: Inhibitory effect
# Protocol: as §2
# [7] = average of 4 tests, read-out: survival rate (inhibition effect), Average
smiles,measurement,setting,value
Fc1ccc([C@@H]2CCNC[C@H]2COc2ccc3c(c2)OCO3)cc1 [Paroxetine],viability at 10 µM,HCT116-wt; [7],28.4%
same,viability at 10 µM,"HCT116-wt; run 0602-30 min, read-out: survival rate (inhibition effect)",23.8%
same,viability at 10 µM,"HCT116-wt; run 0605-10 min, read-out: survival rate (inhibition effect)",30.6%
same,viability at 10 µM,"HCT116-wt; run 0607-10 min, read-out: survival rate (inhibition effect)",29.7%
same,viability at 10 µM,"HCT116-wt; run 0609-10 min, read-out: survival rate (inhibition effect)",29.5%
same,viability at 10 µM,"T24; T-24, 72 h, T24, average of 4 tests, read-out: survival rate (inhibition effect), Average",99.9%
same,viability at 10 µM,"T24; T-24, T24, 72 h, run 1-30 min, read-out: survival rate (inhibition effect)",112%
same,viability at 10 µM,"T24; T-24, T24, 72 h, run 2-20 min, read-out: survival rate (inhibition effect)",85.2%
same,viability at 10 µM,"T24; T-24, T24, 72 h, run 3-20 min, read-out: survival rate (inhibition effect)",102%
same,viability at 10 µM,"T24; T-24, T24, 72 h, run 4-20 min, read-out: survival rate (inhibition effect)",102%
same,viability at 10 µM,"AsPC-1; ASPC1, 72 h, AsPC-1, average of 4 tests, read-out: survival rate (inhibition effect), Average",77%
same,viability at 10 µM,"AsPC-1; ASPC1, AsPC-1, 72 h, run 1-4-30 min, read-out: survival rate (inhibition effect)",72.5%
same,viability at 10 µM,"AsPC-1; ASPC1, AsPC-1, 72 h, run 1-7-3-30 min, read-out: survival rate (inhibition effect)",78.8%
same,viability at 10 µM,"AsPC-1; ASPC1, AsPC-1, 72 h, run 1-7-4-30 min, read-out: survival rate (inhibition effect)",87.3%
same,viability at 10 µM,"AsPC-1; ASPC1, AsPC-1, 72 h, run 1-7-7-30 min, read-out: survival rate (inhibition effect)",69.3%
same,viability at 10 µM,"BxPC-3; BXPC-3, 72 h, BxPC-3, average of 4 tests, read-out: survival rate (inhibition effect), Average",77.7%
same,viability at 10 µM,"BxPC-3; BXPC-3, BxPC-3, 72 h, run 3-4-30 min, read-out: survival rate (inhibition effect)",87%
same,viability at 10 µM,"BxPC-3; BXPC-3, BxPC-3, 72 h, run 3-7-3-30 min, read-out: survival rate (inhibition effect)",59.7%
same,viability at 10 µM,"BxPC-3; BXPC-3, BxPC-3, 72 h, run 3-7-4-30 min, read-out: survival rate (inhibition effect)",93.7%
same,viability at 10 µM,"[1]; A549, 72 h, A549, average of 4 tests, read-out: survival rate (inhibition effect), Average",92.4%
same,viability at 10 µM,"[1]; A549, A549, 72 h, run 0524-10 min, read-out: survival rate (inhibition effect)",84.2%
same,viability at 10 µM,"[1]; A549, A549, 72 h, run 0526-10 min, read-out: survival rate (inhibition effect)",127%
same,viability at 10 µM,"[1]; A549, A549, 72 h, run 0529-10 min, read-out: survival rate (inhibition effect)",54%
same,viability at 10 µM,"[1]; A549, A549, 72 h, run 0531-10 min, read-out: survival rate (inhibition effect)",104%
same,viability at 10 µM,"[2]; MKN-45, 72 h, MKN-45, average of 4 tests, read-out: survival rate (inhibition effect), Average",40.5%
same,viability at 10 µM,"[2]; MKN-45, MKN-45, 72 h, run 0510-10 min, read-out: survival rate (inhibition effect)",36.2%
same,viability at 10 µM,"[2]; MKN-45, MKN-45, 72 h, run 0512-10 min, read-out: survival rate (inhibition effect)",52%
same,viability at 10 µM,"[2]; MKN-45, MKN-45, 72 h, run 0515-10 min, read-out: survival rate (inhibition effect)",37.8%
same,viability at 10 µM,"[2]; MKN-45, MKN-45, 72 h, run 0517-10 min, read-out: survival rate (inhibition effect)",36%
same,inhibitory effect on several cancer cell lines,various cancer cells,significant inhibitory effect
same,viability at 10 µM,"[3]; A-375, 72 h, A375, average of 4 tests, read-out: survival rate (inhibition effect), Average",43.8%
same,viability at 10 µM,"[3]; A-375, A375, 72 h, run 0602-30 min, read-out: survival rate (inhibition effect)",46.8%
same,viability at 10 µM,"[3]; A-375, A375, 72 h, run 0605-10 min, read-out: survival rate (inhibition effect)",44.4%
same,viability at 10 µM,"[3]; A-375, A375, 72 h, run 0607-10 min, read-out: survival rate (inhibition effect)",35.4%
same,viability at 10 µM,"[3]; A-375, A375, 72 h, run 0609-10 min, read-out: survival rate (inhibition effect)",48.8%
same,weight,"[4]; 100 mg/kg/day i.p., Fifth measurement",22 g and 20 g
same,weight,"[4]; 100 mg/kg/day i.p., First measurement",19 g and 18 g
same,weight,"[4]; 100 mg/kg/day i.p., Fourth measurement",22 g and 20 g
same,weight,"[4]; 100 mg/kg/day i.p., Second measurement",19 g and 21 g and 20 g
same,weight,"[4]; 100 mg/kg/day i.p., Third measurement",20.5 g and 23.5 g and 19 g
same,weight,"[4]; 200 mg/kg/day i.p., Fifth measurement",21 g and 20 g
same,weight,"[4]; 200 mg/kg/day i.p., First measurement",19 g and 18.5 g and 20 g
same,weight,"[4]; 200 mg/kg/day i.p., Fourth measurement",20 g and 21 g
same,weight,"[4]; 200 mg/kg/day i.p., Second measurement",20 g and 23 g
same,weight,"[4]; 200 mg/kg/day i.p., Third measurement",19 g and 18.5 g
same,health status / death of tested mice during the treatment,[4]; both high and low doses,without death
same,weight of mice during the experiment,"[4]; both low dose and high dose, FIG. 2",did not show a significant decrease
same,viability at 10 µM,pancreatic cancer cells,77.4%
same,viability at 10 µM,[5]; [7],33.2%
same,viability at 10 µM,"[5]; run 0524-10 min, read-out: survival rate (inhibition effect)",33.2%
same,viability at 10 µM,"[5]; run 0526-10 min, read-out: survival rate (inhibition effect)",32.1%
same,viability at 10 µM,"[5]; run 0529-10 min, read-out: survival rate (inhibition effect)",31.7%
same,viability at 10 µM,"[5]; run 0531-10 min, read-out: survival rate (inhibition effect)",35.8%
same,viability at 10 µM,gastric cancer cells,26.3%
same,viability at 10 µM,[6]; [7],12.2%
same,viability at 10 µM,"[6]; run 0510-10 min, read-out: survival rate (inhibition effect)",12%
same,viability at 10 µM,"[6]; run 0512-10 min, read-out: survival rate (inhibition effect)",11.1%
same,viability at 10 µM,"[6]; run 0515-10 min, read-out: survival rate (inhibition effect)",12.7%
same,viability at 10 µM,"[6]; run 0517-10 min, read-out: survival rate (inhibition effect)",12.8%
same,viability at 10 µM,TOV-21G; [7],87.1%
same,viability at 10 µM,"TOV-21G; run 4-30 min, read-out: survival rate (inhibition effect)",86.1%
same,viability at 10 µM,"TOV-21G; run 7-3-30 min, read-out: survival rate (inhibition effect)",93.5%
same,viability at 10 µM,"TOV-21G; run 7-4-30 min, read-out: survival rate (inhibition effect)",79.7%
same,viability at 10 µM,"TOV-21G; run 7-7-30 min, read-out: survival rate (inhibition effect)",89.2%
same,viability at 10 µM,hepatic cancer cells,60.1%

# — patent US20170304286A1 (LAUNX BIOMEDICAL CO., LTD., priority 2014, published 2017)
